Measurements from US20060069132A1, “Azolecarboxamide herbicides” (priority 2004, published 2006).

Assays:
barnyardgrass [1] = assay: Test B flooded paddy test; assay type: in vivo, Echinochloa crus-galli; conditions: 1000 g ai/ha, visual rating, scale 0 to 100 (0 no effect, 100 complete control), 13 to 15 days
Method in brief: (§1)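 Visual ratings, 0 (no effect) to 100 (complete control), made versus controls after 13–15 d greenhouse. Paddy plants treated at 2-leaf stage; postemergence plants at 1- to 4-leaf stage, 2–18 cm tall.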

morningglory [2] = assay: Test B pre-/postemergence herbicide test; assay type: in vivo, Ipomoea coccinea; conditions: for Morningglory plant response rating: postemergence, scale 0 (no effect) to 100 (complete control)
Method in brief: (§2)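 Visual rating, 0 (no effect) to 100 (complete control), versus untreated controls after 13–15 d in greenhouse. Pre- and postemergence applications (postemergence plants 2–18 cm, 1–4 leaves); flooded paddy arm at 2-leaf stage. Compounds in non-phytotoxic solvent plus surfactant.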

rice [3] = assay: Test B pre-/postemergence herbicide test; assay type: in vivo, Oryza sativa; conditions: 0 = no effect, 100 = complete control, preemergence
Method in brief: (§3)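 Seeds were planted and treated preemergence with compounds formulated in a non-phytotoxic solvent mixture containing surfactant, while plants at the 1- to 4-leaf stage (2 to 18 cm) received postemergence sprays. Flooded paddy plants were grown to the 2-leaf stage. After 13 to 15 days in a greenhouse, injury was visually rated 0–100 against untreated controls.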

barnyardgrass [4] = assay: Test A pre-/postemergence herbicide test; assay type: in vivo, Echinochloa crus-galli
Method in brief: (§4)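 Visual injury rating on a 0–100 scale (0 no effect, 100 complete control) versus untreated controls, about ten days after treatment in greenhouse. Pre: directed soil spray onto seeded sandy loam. Post: spray to runoff on plants 2–10 cm tall at one- to two-leaf stage.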

cocklebur = assay: Test B pre-/postemergence herbicide test; assay type: in vivo, Xanthium strumarium; conditions: for Cocklebur plant response rating: postemergence, scale 0 (no effect) to 100 (complete control)
Method in brief: as §2

wheat = assay: Test B postemergence herbicide test; assay type: in vivo, Triticum aestivum; design: key to Wheat plant response rating: 0 = no effect, 100 = complete control; conditions: postemergence, visual rating, scale 0 (no effect) to 100 (complete control)
Method in brief: as §1

ducksalad = assay: Test B flooded paddy test; assay type: in vivo, Heteranthera limosa; conditions: 1000 g ai/ha, visual rating, scale 0 to 100 (0 no effect, 100 complete control), 13 to 15 days
Method in brief: as §1

corn = assay: Test B pre-/postemergence herbicide test; assay type: in vivo, Zea mays; conditions: for Corn plant response rating: postemergence, scale 0 (no effect) to 100 (complete control)
Method in brief: as §3

rice [5] = assay: Test B flooded paddy test; assay type: in vivo, Oryza sativa; conditions: 1000 g ai/ha, visual rating, scale 0 to 100 (0 no effect, 100 complete control), 13 to 15 days
Method in brief: as §1

giant foxtail [6] = assay: Test A pre-/postemergence herbicide test; assay type: in vivo, Setaria faberi
Method in brief: as §4

large crabgrass [7] = assay: Test B pre-/postemergence herbicide test; assay type: in vivo, Digitaria sanguinalis; conditions: for Crabgrass, Large plant response rating: postemergence, scale 0 (no effect) to 100 (complete control)
Method in brief: as §3

barnyardgrass [8] = assay: Test B pre-/postemergence herbicide test; assay type: in vivo, Echinochloa crus-galli; conditions: for Barnyardgrass plant response rating: postemergence, scale 0 (no effect) to 100 (complete control)
Method in brief: as §2

redroot pigweed = assay: Test A pre-/postemergence herbicide test; assay type: in vivo, Amaranthus retroflexus
Method in brief: as §4

velvetleaf [9] = assay: Test A pre-/postemergence herbicide test; assay type: in vivo, Abutilon theophrasti
Method in brief: as §4

pigweed = assay: Test B pre-/postemergence herbicide test; assay type: in vivo, Amaranthus retroflexus; conditions: for Pigweed plant response rating: postemergence, scale 0 (no effect) to 100 (complete control)
Method in brief: as §3

giant foxtail [10] = assay: Test B pre-/postemergence herbicide test; assay type: in vivo, Setaria faberi; conditions: for Foxtail, Giant plant response rating: postemergence, scale 0 (no effect) to 100 (complete control)
Method in brief: as §3

wild oat = assay: Test B postemergence herbicide test; assay type: in vivo, Avena fatua; conditions: postemergence, visual rating, scale 0 (no effect) to 100 (complete control)
Method in brief: as §1

[11] = system: small flower umbrella sedge; assay: Test B flooded paddy test; assay type: in vivo, Cyperus difformis; conditions: 1000 g ai/ha, visual rating, scale 0 to 100 (0 no effect, 100 complete control), 13 to 15 days
Method in brief: as §1

velvetleaf [12] = assay: Test B pre-/postemergence herbicide test; assay type: in vivo, Abutilon theophrasti; conditions: for Velvetleaf plant response rating: postemergence, scale 0 (no effect) to 100 (complete control)
Method in brief: as §3

blackgrass = assay: Test B postemergence herbicide test; assay type: in vivo, Alopecurus myosuroides; conditions: postemergence, visual rating, scale 0 (no effect) to 100 (complete control)
Method in brief: as §1

lambsquarters = assay: Test B pre-/postemergence herbicide test; assay type: in vivo, Chenopodium album; conditions: for Lambsquarters plant response rating: postemergence, scale 0 (no effect) to 100 (complete control)
Method in brief: as §3

morningglory [13] = assay: Test A pre-/postemergence herbicide test; assay type: in vivo, Ipomoea spp.
Method in brief: as §4

Surinam grass = assay: Test B pre-/postemergence herbicide test; assay type: in vivo, Urochloa decumbens; conditions: for Surinam Grass plant response rating: postemergence, scale 0 (no effect) to 100 (complete control)
Method in brief: as §3

large crabgrass [14] = assay: Test A pre-/postemergence herbicide test; assay type: in vivo, Digitaria sanguinalis
Method in brief: as §4

[15] = 125 g ai/ha, 0 = no effect, 100 = complete control, preemergence
[16] = 500 g ai/ha, visual rating, 0 = no effect, 100 = complete control, preemergence
[17] = Postemergence, 500 g ai/ha, 0 to 100 scale, 0 no effect, 100 complete control
[18] = Postemergence, 2000 g ai/ha, 0 to 100 scale, 0 no effect, 100 complete control
[19] = Preemergence, 2000 g ai/ha, visual rating, 0 to 100 scale (0 no effect, 100 complete control)
[20] = preemergence, 500 g ai/ha, visual injury, 0 to 100 scale (0 no effect, 100 complete control)

CCc1nc(C(C)(C)C)sc1C(=O)Nc1cccc(C(=O)N(CC)CC)n1 [Compound 214]
80: Plant response rating, Lambsquarters (lambsquarters; [16])
15: Plant response rating, Barnyardgrass (barnyardgrass [4]; [18]) | Foxtail, Giant plant response rating (giant foxtail [6]; [17]) | Velvetleaf plant response rating (velvetleaf [9]; [17])
60: Foxtail, Giant plant response rating (giant foxtail [6]; [20])
20: Corn plant response rating (corn; 500 g ai/ha, visual rating) | Plant response rating, Barnyardgrass (barnyardgrass [8]; [16]) | Pigweed plant response rating (redroot pigweed; [17]) | Pigweed plant response rating (redroot pigweed; [20]) | Plant response rating, Velvetleaf (velvetleaf [9]; [18]) | Velvetleaf plant response rating (velvetleaf [9]; [19]) | Foxtail, Giant plant response rating (giant foxtail [10]; 500 g ai/ha, visual rating)
5: Velvetleaf plant response rating (velvetleaf [9]; [20]) | Morningglory plant response rating (morningglory [13]; [20]) | Crabgrass, Large plant response rating (large crabgrass [14]; [17])
70: Plant response rating, Crabgrass, Large (large crabgrass [7]; [16])
10: Velvetleaf plant response rating (velvetleaf [12]; 500 g ai/ha, visual rating) | Plant response rating, Morningglory (morningglory [13]; [18]) | Surinam Grass plant response rating (Surinam grass; 500 g ai/ha, visual rating) | Plant response rating, Crabgrass, Large (large crabgrass [14]; [18])
65: Crabgrass, Large plant response rating (large crabgrass [14]; [19])
55: Foxtail, Giant plant response rating (giant foxtail [6]; [19]) | Crabgrass, Large plant response rating (large crabgrass [14]; [20])
100: Plant response rating, Pigweed (pigweed; [16])
95: Pigweed plant response rating (redroot pigweed; [19])
90: Plant response rating, Foxtail, Giant (giant foxtail [10]; [16])
0: Barnyardgrass plant response rating (barnyardgrass [1]) | Morningglory plant response rating (0 to 100 scale) (morningglory [2]; [15]) | Plant response rating, Morningglory (morningglory [2]; [16]) | Morningglory plant response rating (morningglory [2]; 125 g ai/ha, visual rating) | Morningglory plant response rating (morningglory [2]; 500 g ai/ha, visual rating) | Rice plant response rating (0 to 100 scale) (rice [3]; 125 g ai/ha) | Plant response rating, Rice (rice [3]; 500 g ai/ha, visual rating) | Barnyardgrass plant response rating (barnyardgrass [4]; [17]) | Barnyardgrass plant response rating (barnyardgrass [4]; [20]) | Cocklebur plant response rating (0 to 100 scale) (cocklebur; [15]) | Plant response rating, Cocklebur (cocklebur; [16]) | Cocklebur plant response rating (cocklebur; 125 g ai/ha, visual rating) | Cocklebur plant response rating (cocklebur; 500 g ai/ha, visual rating) | Wheat plant response rating (wheat; 125 g ai/ha) | Wheat plant response rating (wheat; 500 g ai/ha) | Corn plant response rating (0 to 100 scale) (corn; [15]) | Plant response rating, Corn (corn; [16]) | Corn plant response rating (corn; 125 g ai/ha, visual rating) | Rice plant response rating (rice [5]) | Crabgrass, Large plant response rating (0 to 100 scale) (large crabgrass [7]; [15]) | Crabgrass, Large plant response rating (large crabgrass [7]; 125 g ai/ha, visual rating) | Crabgrass, Large plant response rating (large crabgrass [7]; 500 g ai/ha, visual rating) | Barnyardgrass plant response rating (0 to 100 scale) (barnyardgrass [8]; [15]) | Barnyardgrass plant response rating (barnyardgrass [8]; 125 g ai/ha, visual rating) | Barnyardgrass plant response rating (barnyardgrass [8]; 500 g ai/ha, visual rating) | Pigweed plant response rating (0 to 100 scale) (pigweed; [15]) | Pigweed plant response rating (pigweed; 125 g ai/ha, visual rating) | Pigweed plant response rating (pigweed; 500 g ai/ha, visual rating) | Foxtail, Giant plant response rating (0 to 100 scale) (giant foxtail [10]; [15]) | Foxtail, Giant plant response rating (giant foxtail [10]; 125 g ai/ha, visual rating) | Oat, Wild plant response rating (wild oat; 125 g ai/ha) | Oat, Wild plant response rating (wild oat; 500 g ai/ha) | Velvetleaf plant response rating (0 to 100 scale) (velvetleaf [12]; [15]) | Plant response rating, Velvetleaf (velvetleaf [12]; [16]) | Velvetleaf plant response rating (velvetleaf [12]; 125 g ai/ha, visual rating) | Blackgrass plant response rating (blackgrass; 125 g ai/ha) | Blackgrass plant response rating (blackgrass; 500 g ai/ha) | Lambsquarters plant response rating (0 to 100 scale) (lambsquarters; [15]) | Lambsquarters plant response rating (lambsquarters; 125 g ai/ha, visual rating) | Lambsquarters plant response rating (lambsquarters; 500 g ai/ha, visual rating) | Morningglory plant response rating (morningglory [13]; [17]) | Surinam Grass plant response rating (0 to 100 scale) (Surinam grass; [15]) | Surinam Grass plant response rating (Surinam grass; 125 g ai/ha, visual rating)
50: Plant response rating, Pigweed (redroot pigweed; [18]) | Sedge, Umbrella plant response rating [11]
40: Plant response rating, Foxtail, Giant (giant foxtail [6]; [18])
30: Barnyardgrass plant response rating (barnyardgrass [4]; [19]) | Ducksalad plant response rating (ducksalad) | Morningglory plant response rating (morningglory [13]; [19]) | Plant response rating, Surinam Grass (Surinam grass; [16])
